Data on one compound can be found in patent US20250339396A1 (COSMAS THERAPEUTICS DEVELOPMENT INC., priority 2021, published 2025).

Structures are written as SMILES. A value given as a limit tells only on which side of the number the result lay.

For one data set, the system named is neuropathic (SNI) rats. Nature of the data set: Sleep restoration in neuropathic rats, 24 h EEG/EMG recordings (REM, NREM, wakefulness, sleep fragmentation index). Format: in vivo, rat. Particulars: for NREM 24 h, mean difference (Bonferroni's multiple comparison test) / REM 24 h, mean difference (Bonferroni's multiple comparison test) / Wake 24 h, mean difference (Bonferroni's multiple comparison test) / SFI (sleep fragmentation index), mean difference (Bonferroni's multiple comparison test): Prodrug D 150 mg/kg, neuropathic (SNI) rats; for NREM 24 h, mean difference (Bonferroni's multiple comparison test) / REM 24 h, mean difference (Bonferroni's multiple comparison test) / Wake 24 h, mean difference (Bonferroni's multiple comparison test): 24 h EEG/EMG; for SFI (sleep fragmentation index), mean difference (Bonferroni's multiple comparison test): awakenings in 24 h divided by total sleep time in hours. On the procedure: Wistar rats weighted 120 g at the beginning of the experiment were housed under standard conditions, at a constant temperature of 22° C., with food and water provided ad libitum and under a 12 h light/dark cycle (lights on at 7:00 AM; lights off at 7:00 PM). All experimental procedures and surgeries were approved by the Animal Ethics Committee of local institutional committee for animal use and care (McGill University, Canada), following the Canadian Institute of Health Research for animal care and scientific use.
Only animals presenting allodynia (mean 2.5 gr) 14 days after SNI surgery, were then implanted EEG/EMG electrode, for 24 hours electrical recording and non-allodynic rat were excluded.
Sham and neuropathic rats were deeply anesthetized with isoflurane (5% for induction, 2-3% for maintenance) and placed in a stereotaxic frame. For EEG monitoring, three stainless-steel epidural electrodes were positioned through 1.5 mm burr holes at-2 mm anteroposterior (AP) and −3 mm lateral (L), −4.5 mm AP and +3 mm L, −7 mm AP and […] according to bregma (Paxinos and Watson 2006). For the EMG signal, three flexible stainless-steel wires were implanted into the neck muscle. Then, wires and connectors were fixed to the skull using dental acrylic (Coltene/Whaledent Inc. USA). Rats were given 5 days to recovery (Ochoa-Sanchez, et al., 2011).
24-h after electrode implantation surgery, rats were placed for habituation in the recording room from 12:00 PM to 9:00 PM on a daily basis. During this time, the rats were placed in the recording chambers and connected to a flexible 6-flat cable (3M Scotchflex®), in a freely moving manner. No recordings were performed, but tolerance to the cable, and sleep behavior were observed. The day 5 of habituation, recordings were performed for 24 h, starting at 6:00 PM.
Prodrug D (150 mg/kg) was dissolved in 40% PEG 400 and 60% water (about 2.5 mL average for rats by gavage) and was administered at 6 am and 6 pm.
The amplification of EEG/EMG signals were at the total gain of 10.000. EEG/EMG signals were digitalized by a CED 1401 interface system, processed on-line, and analyzed off-line by Spike 2 software, in parallel with analog-to-digital samplings of amplified (Grass, P55) polygraphic signals (EEG; sampling rate, 100 or 200 Hz). Consecutive 10-s epochs were subjected to a Fast Fourier Transform (FFT) and EEG power spectra density was computed in the frequency range of 0-64 Hz (Ochoa-Sanchez, R et al., 2011).
Analysis was made offline using the spike 2 software (Cambridge). Three classical sleep stages are identified using EEG and EMG recordings. Wakefulness was determined by a sustained activity of EMG and low amplitude and high frequency of EEG. NREM (non-rapid eyes movement) sleep was characterized by high amplitude […] (1-4 Hz) and low muscle activity. REM (rapid eyes movement) sleep was marked with muscle atonia as observed in EMG and low amplitude […] in EEG (6-11). Only period longer than 10 seconds was marked for further analysis of awake, REM and NREM sleep, in order to eliminate the transitional period such as drowsiness (Ochoa-Sanchez, R et al., 2011).
Given the changes induced by the neuropathy on sleep parameters, we then calculate the sleep fragmentation index (SFI). SFI was calculated as the total number of awakenings in 24 h divided by the total sleep time in hours.
Data analysis was done using GraphPad Prism statistical software version 5.04 […]. One-way ANOVA was performed for 24 h time of REM, NREM and wakefulness as well as sleep fragmentation index. Post-hoc analyses were performed using the Bonferroni t-test comparisons. All data are expressed as mean±SEM. P<0.05 was considered significant.

A further data set is described as follows: Solubility of Prodrug D. It counts as physicochemical. An excerpt:
The solubility and stability of Prodrug D as synthesized in Example 2 were studied.

The nature of data set [1]: Stability of Prodrug D in solvents by HPLC. It counts as physicochemical. On the procedure: For this test, we used HPLC with different solvent systems. […] Therefore, after initial assessment, this method was used for the remaining tests. Prodrug D or UCM924 (comparator) were dissolved in the different solvents listed in the table below and, after the waiting period indicated, HPLC tests were carried out according to the above. The results are shown in the table below, in which the percentages represent the quantity of prodrug D or UCM924 detected in the samples.

The mark [2] stands for this setting: SNI rats, 150 mg/kg by gavage at 6 am and 6 pm.

On to `CC(=O)N(CCN(c1ccc(F)cc1)c1cccc(Br)c1)C(=O)OCOC(=O)CN.Cl` [Prodrug D, ((acetyl(2-((3-bromophenyl)(4-fluorophenyl)amino)ethyl)carbamoyl)oxy)methyl 2-aminoacetate hydrochloride], for which the “NREM 24 h, mean difference (Bonferroni's multiple comparison test)” value was −236.5 with neuropathic (SNI) rats (Control vs SNI + Prodrug D) and −62.39 with neuropathic (SNI) rats (Sham vs SNI + Prodrug D). Also, the entries for the “REM 24 h, mean difference (Bonferroni's multiple comparison test)” value in the data set with neuropathic (SNI) rats (Control vs SNI + Prodrug D) and in the data set on neuropathic (SNI) rats (Sham vs SNI + Prodrug D) were −107 and −44.39, respectively. Also, the “Wake 24 h, mean difference (Bonferroni's multiple comparison test)” value in the data set on neuropathic (SNI) rats (Control vs SNI + Prodrug D) stood at 343.4; in the data set with neuropathic (SNI) rats (Sham vs SNI + Prodrug D), 106.8. The “SFI (sleep fragmentation index), mean difference (Bonferroni's multiple comparison test)” value in the data set on neuropathic (SNI) rats (Control vs SNI + Prodrug D) is listed as 0.2758; in the data set with neuropathic (SNI) rats (Sham vs SNI + Prodrug D) it was 0.01886. The “REM time, NREM time and time in wakefulness during 24 h” value in the data set with neuropathic (SNI) rats (setting [2]) is listed as “restore all the three parameters”. The “sleep fragmentation index (SFI)” value in the data set on neuropathic (SNI) rats (setting [2]) is “reverse the fragmentation”. The solubility in the data set “Solubility of Prodrug D” (aqueous with cosolvent or surfactant or cyclodextrin, in PEG400:water 40%:60% mixture) was > 125 mg/mL; in “Solubility of Prodrug D” (in water) it was > 150 mg/mL. Further, the “quantity detected in the sample by HPLC” value came to 90.15% in data set [1] (HPLC Method 1, H2O, 0 h, pH ~7.0); 85.21% in data set [1] (HPLC Method 2, 1N HCl, overnight at rt, pH ~0); 58.17% in data set [1] (HPLC Method 2, 40% PEG400:60% H2O, overnight at rt, pH ~7.0); 93.92% in data set [1] (HPLC Method 2, H2O, 0 h, pH ~7.0); 18.28% in data set [1] (HPLC Method 2, H2O, overnight at rt, pH ~7.0); 27.21% in data set [1] (HPLC Method 2, Saturated NaHCO3aq, 2 h at rt, pH ~8.5). Further, the “stability at different PH” value in data set [1] (rank order) is recorded as “acidic>neutral>basic”.

Broadly, the solubility is the concentration that dissolves in the medium under given conditions.
